Patent US20030032620A1, “Low molecular weight chondroitin sulphate compound having cosmetic activity” (priority 2001, published 2003)

Assays:
Format in all cases: cell-based
Details in all cases: human fibroblast culture, radioactive labelling
[1] = system: human dermal fibroblasts; test: Leucine incorporation (protein synthesis) in human fibroblast cultures
Text: (§1) In another embodiment of the invention the CSBP obtained in the present example was characterised by its efficiency in stimulating the fundamental metabolism of human dermal fibroblasts, more particularly by incorporation of various markers such as thymidine (cell growth), leucine (protein synthesis) and glucosamine (synthesis of GAG).
(§2) Tests in vitro on human fibroblast cultures are a means of evaluating the capacity of CSBP to stimulate the fundamental metabolism of the extracellular matrix of the cutis. Under conventional conditions of cultivation in triplicate, the CSBP according to the invention and positive references (EGF, epidermis growth factor at 10 ng/ml, TGF-β human transformation factor b at 10 ng/ml and vitamin C at 20 mg/ml) were placed in contact with fibroblasts. The neosynthesis can be quantified by radioactive labelling of the specific metabolites (amino acids). Two concentrations of CSBP were tested: 2 and 0.4 mg/ml. The results obtained in the following table were subjected to the Dunnett test:
(§3) The culture conditions were as follows:
(§4) Culture medium MEM/M199: sodium bicarbonate 1.87 mg/ml, L-glutamine 2 mM, penicillin 50 IU/ml and foetal calf serum 10%.

[2] = system: human dermal fibroblasts; test: Thymidine incorporation (cell growth) in human fibroblast cultures
Text: as §1, §2, §3, §4

[3] = system: human dermal fibroblasts; test: Glucosamine incorporation (synthesis of GAG) in human fibroblast cultures
Text: as §1, §2, §3, §4

Molecule: O=C1O[C@H]([C@@H](O)CO)C(O)=C1O [VIT C, vitamin C, reference compound]
- % Leucine ([1]; positive reference vitamin C): VIT C: 45%

Molecule: EGF: epidermis growth factor, positive reference (NSDSECPLSHDGYCLHDGVCMYIEALDKYACNCVVGYIGERCQYRDLKWWELR; Epidermal growth factor; UniProt P01133 971-1023, looked up) [reference compound]
- % Thymidine ([2]; positive reference EGF at 10 ng/ml): EGF: 100%

Molecule: low molecular weight chondroitin sulphate [CSBP]
- % Leucine ([1]; CSBP 0.4 mg/ml): 44 p < 0.05%
- % Leucine ([1]; CSBP 2.0 mg/ml): 88 p < 0.01%
- % Thymidine ([2]; CSBP 0.4 mg/ml): 74 p < 0.01%
- % Thymidine ([2]; CSBP 2.0 mg/ml): 183 p < 0.01%
- % Glucosamine ([3]; CSBP 0.4 mg/ml): 57 p < 0.01%
- % Glucosamine ([3]; CSBP 2.0 mg/ml): 178 p < 0.01%
